Source: patent publication US10787452B2 (Vertex Pharmaceuticals Incorporated, priority 2012, dated 2020)

Test system: HCT116 colorectal cancer cells
Assay: Cisplatin sensitization assay (96 h cell viability MTS);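 also: compound concentration needed to lower the Cisplatin-alone IC50 by a set fold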
Type: cell-based
Details: 96 h MTS, compound plus Cisplatin
Procedure, shortened: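 Viability is measured with MTS reagent, added after 96 h and developed for 1 h at 37° C. Beforehand, cells receive compound and cisplatin simultaneously in a concentration matrix of 2-fold serial dilutions starting at 10 μM final.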

Nc1nn2cc(F)cnc2c1C(=O)Nc1cncc(F)c1N1CCC(C(=O)N2CCC(N3CCC3)CC2)CC1 [I-G-68, 2-amino-N-(4-(4-(4-(azetidin-1-yl)piperidine-1-carbonyl)piperidin-1-yl)-5-fluoropyridin-3-yl)-6-fluoropyrazolo[1,5-a]pyrimidine-3-carboxamide]
Cisplatin Sensitization Assay: +++ (Compounds with a Cisplatin sensitization value of <0.02 μM are marked with “+++.”)

Nc1nn2cc(F)cnc2c1C(=O)Nc1cncc(Cl)c1N1CCC(C(=O)N2CCN3CCC2C3)CC1 (stereo not shown) [I-G-69, N-(4-(4-(1,4-diazabicyclo[3.2.1]octane-4-carbonyl)piperidin-1-yl)-5-chloropyridin-3-yl)-2-amino-6-fluoropyrazolo[1,5-a]pyrimidine-3-carboxamide]
Cisplatin Sensitization Assay: +++ (Compounds with a Cisplatin sensitization value of <0.02 μM are marked with “+++.”)

Nc1nn2cc(F)cnc2c1C(=O)Nc1cncc(F)c1N1CCC(C(=O)N2CC(F)(F)C2)CC1 [I-G-73, 2-amino-N-(4-(4-(3,3-difluoroazetidine-1-carbonyl)piperidin-1-yl)-5-fluoropyridin-3-yl)-6-fluoropyrazolo[1,5-a]pyrimidine-3-carboxamide]
Cisplatin Sensitization Assay: +++ (Compounds with a Cisplatin sensitization value of <0.02 μM are marked with “+++.”)

Nc1nn2cc(F)cnc2c1C(=O)Nc1cncc(F)c1N1CCC(C(=O)N2CC(F)C2)CC1 [I-G-74, 2-amino-6-fluoro-N-(5-fluoro-4-(4-(3-fluoroazetidine-1-carbonyl)piperidin-1-yl)pyridin-3-yl)pyrazolo[1,5-a]pyrimidine-3-carboxamide]
Cisplatin Sensitization Assay: +++ (Compounds with a Cisplatin sensitization value of <0.02 μM are marked with “+++.”)

COC1(C)CN(C(=O)C2CCN(c3c(F)cncc3NC(=O)c3c(N)nn4cc(F)cnc34)CC2)C1 [I-G-75, 2-amino-6-fluoro-N-(5-fluoro-4-(4-(3-methoxy-3-methylazetidine-1-carbonyl)piperidin-1-yl)pyridin-3-yl)pyrazolo[1,5-a]pyrimidine-3-carboxamide]
Cisplatin Sensitization Assay: +++ (Compounds with a Cisplatin sensitization value of <0.02 μM are marked with “+++.”)

N#CC1CN(C(=O)C2CCN(c3c(F)cncc3NC(=O)c3c(N)nn4cc(F)cnc34)CC2)C1 [I-G-76, 2-amino-N-(4-(4-(3-cyanoazetidine-1-carbonyl)piperidin-1-yl)-5-fluoropyridin-3-yl)-6-fluoropyrazolo[1,5-a]pyrimidine-3-carboxamide]
Cisplatin Sensitization Assay: +++ (Compounds with a Cisplatin sensitization value of <0.02 μM are marked with “+++.”)

Nc1nn2cc(F)cnc2c1C(=O)Nc1cnccc1N1CCC(C(=O)N2CCC2)CC1 [I-G-77, 2-amino-N-(4-(4-(azetidine-1-carbonyl)piperidin-1-yl)pyridin-3-yl)-6-fluoropyrazolo[1,5-a]pyrimidine-3-carboxamide]
Cisplatin Sensitization Assay: +++ (Compounds with a Cisplatin sensitization value of <0.02 μM are marked with “+++.”)

COC1CN(C(=O)C2CCN(c3ccncc3NC(=O)c3c(N)nn4cc(F)cnc34)CC2)C1 [I-G-78, 2-amino-6-fluoro-N-(4-(4-(3-methoxyazetidine-1-carbonyl)piperidin-1-yl)pyridin-3-yl)pyrazolo[1,5-a]pyrimidine-3-carboxamide]
Cisplatin Sensitization Assay: +++ (Compounds with a Cisplatin sensitization value of <0.02 μM are marked with “+++.”)

COC1(C)CN(C(=O)C2CCN(c3ccncc3NC(=O)c3c(N)nn4cc(F)cnc34)CC2)C1 [I-G-79, 2-amino-6-fluoro-N-(4-(4-(3-methoxy-3-methylazetidine-1-carbonyl)piperidin-1-yl)pyridin-3-yl)pyrazolo[1,5-a]pyrimidine-3-carboxamide]
Cisplatin Sensitization Assay: +++ (Compounds with a Cisplatin sensitization value of <0.02 μM are marked with “+++.”)

Nc1nn2cc(F)cnc2c1C(=O)Nc1cnccc1N1CCC(C(=O)N2CC(F)(F)C2)CC1 [I-G-80, 2-amino-N-(4-(4-(3,3-difluoroazetidine-1-carbonyl)piperidin-1-yl)pyridin-3-yl)-6-fluoropyrazolo[1,5-a]pyrimidine-3-carboxamide]
Cisplatin Sensitization Assay: +++ (Compounds with a Cisplatin sensitization value of <0.02 μM are marked with “+++.”)
